Where a chain is given by its changes, count along the chain named. Calls of active or inactive are those of the source. The calls are words filed in the database; no cut-off is given here.
What was measured:
[1] = test system: T1, General amino-acid permease GAP1 (Saccharomyces cerevisiae), P19145 [M401C]; test: Induction of yeast Gap1 M401C mutant-mediated trehalose activation at 10 mM
T1 sequence (whole entry): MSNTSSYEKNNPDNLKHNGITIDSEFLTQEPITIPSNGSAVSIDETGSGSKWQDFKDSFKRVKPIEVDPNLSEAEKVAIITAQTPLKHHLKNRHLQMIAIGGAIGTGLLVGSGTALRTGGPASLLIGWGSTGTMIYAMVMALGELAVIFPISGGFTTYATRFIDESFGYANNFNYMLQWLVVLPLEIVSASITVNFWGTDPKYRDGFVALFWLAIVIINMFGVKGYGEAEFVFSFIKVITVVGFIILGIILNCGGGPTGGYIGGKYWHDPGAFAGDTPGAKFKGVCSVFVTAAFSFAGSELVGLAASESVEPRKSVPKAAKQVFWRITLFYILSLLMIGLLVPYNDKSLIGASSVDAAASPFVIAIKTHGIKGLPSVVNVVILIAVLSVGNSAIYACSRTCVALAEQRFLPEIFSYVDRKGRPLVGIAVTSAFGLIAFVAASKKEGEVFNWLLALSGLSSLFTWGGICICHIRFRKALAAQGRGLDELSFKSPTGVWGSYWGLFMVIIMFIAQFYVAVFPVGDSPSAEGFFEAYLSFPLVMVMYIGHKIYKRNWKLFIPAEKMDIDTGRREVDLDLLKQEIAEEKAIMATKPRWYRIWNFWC

[2] = test system: T2, General amino-acid permease GAP1 (Saccharomyces cerevisiae), P19145 [C397C]; test: Induction of yeast Gap1 C397C mutant-mediated […] activation at 2 mM in presence of 10 mM MTSEA treated before compound addition
T2 sequence (whole entry): T1 sequence (whole entry) with C401M

[3] = test system: T3, General amino-acid permease GAP1 (Saccharomyces cerevisiae), P19145 [A403C]; test: Induction of yeast Gap1 A403C mutant-mediated trehalose activation at 10 mM
T3 sequence (whole entry): T1 sequence (whole entry) with C401M, A403C

[4] = test system: T4, General amino-acid permease GAP1 (Saccharomyces cerevisiae), P19145 [T400C]; test: Induction of yeast Gap1 T400C mutant-mediated trehalose activation at 2 mM in presence of 10 mM MTSEA treated before compound addition
T4 sequence (whole entry): T1 sequence (whole entry) with T400C, C401M

- Activity [1]: inactive
- inhibition [2]: Active
- Activity [3]: inactive
- inhibition [4]: Active
SMILES: NC(=O)NCCC[C@H](N)C(=O)O

Reference: ChEMBL document CHEMBL1221220, “Transport and signaling via the amino acid binding site of the yeast Gap1 amino acid transceptor” (Nat Chem Biol, 2009)
